Results on ten molecules are retold here after patent US20070021405A1, “ARYL- AND HETEROARYLPIPERIDINECARBOXYLATE-DERIVATIVES METHODS FOR THEIR PREPARATION AND USE THEREOF AS FATTY ACID AMIDO HYDROLASE ENZYME INHIBITORS” (SANOFI-AVENTIS, priority 2004, published 2007).

For one series, the target named is T1, enzyme FAAH (Fatty Acid Amido Hydrolase) (Mus musculus, UniProt O08914).
T1 construct: The membrane homogenates are prepared at the time of use by homogenization of the tissues; from tissue; host or cells: mouse brain (minus the cerebellum), membrane homogenate
T1 sequence (O08914 1-579): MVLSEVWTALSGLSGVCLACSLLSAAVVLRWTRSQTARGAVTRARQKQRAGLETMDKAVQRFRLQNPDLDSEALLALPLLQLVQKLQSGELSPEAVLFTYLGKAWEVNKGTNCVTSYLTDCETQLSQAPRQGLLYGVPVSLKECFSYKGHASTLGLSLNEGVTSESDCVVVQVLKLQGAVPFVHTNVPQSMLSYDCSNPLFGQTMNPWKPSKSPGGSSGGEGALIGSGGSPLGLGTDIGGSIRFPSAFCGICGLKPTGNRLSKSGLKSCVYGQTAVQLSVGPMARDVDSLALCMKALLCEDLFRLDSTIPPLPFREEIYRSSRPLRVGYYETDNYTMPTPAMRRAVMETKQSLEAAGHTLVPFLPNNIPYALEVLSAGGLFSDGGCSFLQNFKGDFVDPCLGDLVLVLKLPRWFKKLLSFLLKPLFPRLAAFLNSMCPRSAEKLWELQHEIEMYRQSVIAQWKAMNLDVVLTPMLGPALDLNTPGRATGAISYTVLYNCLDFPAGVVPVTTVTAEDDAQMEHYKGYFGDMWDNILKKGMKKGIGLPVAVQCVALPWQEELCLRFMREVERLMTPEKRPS
Put plainly: radioenzymatic test of FAAH inhibition: hydrolysis of ((1-3H)ethanolamine)-anandamide by mouse brain membrane homogenates. Format: biochemical. As to conditions: mouse brain membrane homogenate, 10 μM anandamide, 15 minutes at 25° C.; read-out: IC50 (concentration which inhibits the control enzymatic activity of FAAH by 50%). How it is done:
The compounds of the invention have formed the subject of pharmacological trials which make it possible to determine their inhibitory effect on the enzyme FAAH (Fatty Acid Amido Hydrolase).
Thus, mouse brains (minus the cerebellum) are removed and stored at −80° C. The membrane homogenates are prepared at the time of use by homogenization of the tissues with a Polytron in a 10 mM Tris-HCl buffer (pH 8.0) comprising 150 mM NaCl and 1 mM EDTA. The enzymatic reaction is subsequently carried out in 70 μl of buffer comprising bovine serum albumin free from fatty acids (1 mg/ml). The test compounds, at various concentrations, the ((1-^3H)ethanolamine)-anandamide (specific activity of 15-20 Ci/mmol), diluted to 10 μM with non-radiolabelled anandamide, and the membrane preparation (400 μg of frozen tissue per assay) are successively added. After 15 minutes at 25° C., the enzymatic reaction is halted by addition of 140 μl of chloroform/methanol (2:1). The mixture is stirred for 10 minutes and is then centrifuged at 3500 g for 15 minutes. An aliquot (30 μl) of the aqueous phase comprising the (1-^3H)ethanolamine is counted by liquid scintillation.
Consider `CCOc1ccc(-c2ccc(C3(O)CCN(C(=O)OCC(=O)NC)CC3)cc2)cc1` [compound 39, 2-(methylamino)-2-oxoethyl 4-(4′-ethoxybiphenyl-4-yl)-4-hydroxypiperidine-1-carboxylate], for which the IC50 came to 95 nM. Still for that read-out and setting: to `CNC(=O)COC(=O)N1CCC(O)(c2ccc(-c3ccc(Cl)c(Cl)c3)cc2)CC1` [Compound No. 40, 2-(Methylamino)-2-oxoethyl 4-(3′,4′-dichlorobiphenyl-4-yl)-4-hydroxypiperidine-1-carboxylate] belongs 98 nM.

Another series relates to male OF1 mice. The series can be described thus: test for analgesia: abdominal tractions induced by PBQ (phenylbenzoquinone) i.p. As to conditions: 3 mg/kg p.o., administered 60 minutes before PBQ. The format is in vivo, mouse. As to the method: The in vivo activity of the compounds of the invention was evaluated in a test for analgesia.
Thus, the intraperitoneal (i.p.) administration of PBQ (phenylbenzoquinone, 2 mg/kg in a 0.9% sodium chloride solution comprising 5% of ethanol) to male OF1 mice weighing 25 to 30 g causes abdominal tractions, on average 30 twisting or contracting motions during the period from 5 to 15 minutes after injection. The test compounds are administered, orally (p.o.) or intraperitoneally (i.p.) in suspension in 0.5% Tween 80, 60 minutes or 120 minutes before the administration of PBQ. Under these conditions, the most powerful compounds of the invention reduce by 35 to 70% the number of tractions induced by the PBQ, within a range of doses of between 1 and 30 mg/kg.
Take `CNC(=O)COC(=O)N1CCC(CCc2ccc(Cl)cc2)CC1` [compound 57, 2-(methylamino)-2-oxoethyl 4-[2-(4-chloro-phenyl)ethyl]piperidine-1-carboxylate]: the “reduction of the number of tractions induced by the PBQ” value stood at 37%.

Staying with this series, now noted: 3 mg/kg p.o., administered 120 minutes before PBQ.
Take `CNC(=O)COC(=O)N1CCC(CCc2ccc(Cl)cc2)CC1` [compound 57, 2-(methylamino)-2-oxoethyl 4-[2-(4-chloro-phenyl)ethyl]piperidine-1-carboxylate]: the “reduction of the number of tractions induced by the PBQ” value is reported as 74%.

System in another series: not given
Test: not given
Conditions: not given
As for `CNC(=O)COC(=O)N1CCC(O)(c2ccc(Br)cc2)CC1` [Compound No. 32, 2-(Methylamino)-2-oxoethyl 4-(4-bromophenyl)-4-hydroxypiperidine-1-carboxylate], the melting point (as a rule, the temperature of the solid-liquid transition) is 57 to 60 °C. `CNC(=O)COC(=O)N1CCC(Cc2ccc3ccccc3c2)CC1` [Compound No. 43, 2-(Methylamino)-2-oxoethyl 4-(naphth-2-ylmethyl)piperidine-1-carboxylate]: the melting point is 150 to 152 °C. As to `CNC(=O)COC(=O)N1CCC(CCc2nccc3ccccc23)CC1` [Compound No. 74, 2-(Methylamino)-2-oxoethyl 4-(2-(isoquinolin-1-yl)ethyl)-1-piperidinecarboxylate], the melting point lay within 126 to 128 °C.

On to `CNC(=O)COC(=O)N1CCC(CC#Cc2ccc(Cl)cc2)CC1` [Compound No. 107, 2-(Methylamino)-2-oxoethyl 4-[3-(4-chlorophenyl)prop-2-yn-1-yl]piperidine-1-carboxylate], for which the melting point is 101 to 103 °C. Turning to `NC(=O)COC(=O)N1CCC(Cn2ccc3ccccc32)CC1` [compound 47, 2-amino-2-oxoethyl 4-(1H-indol-1-ylmethyl)piperidine-1-carboxylate], the melting point fell in the range of 158 to 159 °C. Same read-out and setting: the value for `CNC(=O)COC(=O)N1CCC(n2cnc(-c3ccccc3)c2)CC1` [Compound No. 14, 2-(Methylamino)-2-oxoethyl 4-(4-phenyl-1H-imidazol-1-yl)piperidine-1-carboxylate] was 192 to 194 °C.

In turn, `CNC(=O)COC(=O)N1CCC(O)(c2ccc(-c3ccc(Cl)c(Cl)c3)cc2)CC1` [Compound No. 40, 2-(Methylamino)-2-oxoethyl 4-(3′,4′-dichlorobiphenyl-4-yl)-4-hydroxypiperidine-1-carboxylate] returned a melting point of 156 to 158 °C. Molecule `CNC(=O)COC(=O)N1CCC(CCCc2ccc(Cl)cc2)CC1` [Compound No. 83, 2-(Methylamino)-2-oxoethyl 4-[3-(4-chlorophenyl)propyl]piperidine-1-carboxylate] came in with a melting point of 118 to 120 °C.
